Reference: patent US10233328B2, “Sol-gel based matrix” (KØBENHAVNS UNIVERSITET, priority 2013, dated 2019)

Tests used:
[1] = pH titration of sensor spots (pKa of the sensor); format: physicochemical; conditions: dye in ETEOS-GPTMS matrix, Table 2
Procedure: To perform titrations rapidly a set-up employing an epi-fluorescence microscopy equipped with a halogen light source and an Ocean Optics spectrometer for detection. The sensor spot was attached to a homemade holder, which kept the spot in place in a large chamber filled with water, where pH was externally monitored with a pH meter. Alternatively the sensor spot was affixed on the wall of a cuvette and the titration was performed in a Perkin Elmer LS50B, controlling the pH between measurements.
The performance of the sensors is shown as titration curves in FIG. 4. It is clear that a pH-dependent sensor action is achieved for these two sensor systems.

[2] = Leakage of dye from ETEOS-GPTMS matrix into surrounding PBS (physical stability); format: physicochemical; conditions: for Leaking: fluorescence Intensity (a.u.): PBS pH 7.0 surrounding coated glass slide
Procedure: The photostability was followed by constant illumination of the sensor spot with wavelength selected light from a xenon lamp. The physical stability was tested by immersing the sensor spot in low or high pH aqueous solution, and monitoring the fluorescence from the solution.
Table 2. Leaking of 5(6)-carboxyfluorescein (CF), DMQA-2, DAOTA-1, and 6-stearamido-fluorescein (AF18) from the ETEOS-GPTMS matrix given as fluorescence intensity measured from a PBS solution at pH 7 surrounding a glass slide coated with ETEOS-GPTMS-dye matrix using maximum sized slit widths at the emission and excitation sites of the spectrometer.
All the leakage data is compiled in table 2.

| Molecule | pKa [1] | Leaking: fluorescence Intensity (a.u.) ([2]; leaking period 4 d) | Leakage from ETEOS-GPTMS matrix (in words) ([2]; PBS pH 7.0) | Leaking: fluorescence Intensity (a.u.) ([2]; leaking period 2 h, half the slit widths used for DMQA-2 and DAOTA-1) |
| --- | --- | --- | --- | --- |
| CCCCCCCCCCCCCCCCCC(=O)Nc1ccc2c(c1)C1(OC2=O)c2ccc(O)cc2Oc2cc(O)ccc21 [AFC18, 6-stearamido-fluorescein] | 6.5 | 100 | – | – |
| 5(6)-carboxyfluorescein [CF] | 6.5 | – | extensive leakage | >>800 a.u. |
